Columns and labels:
Assay in all cases: relative viability vs DMSO control (72 h) (fraction); higher = more viable cells
A204 = tested on: A204
Summary of the method: (§1)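 Sarcoma cell lines were seeded in 384-well plates at densities chosen for 80–90% confluence, then 24 h later given 2.5 µl of serially diluted compound drawn from source plates spanning 10 mM to 0.0002 mM. They were held 72 h at 37 °C, 5% CO2, with 0.1% DMSO vehicle and a 5 µM positive control included. Relative viability was read with ATPLite as percent growth and averaged over up to triplicate wells. Rescaling placed full at 1 and none at 0.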

G401 = tested on: G401
Summary of the method: as §1

HS729 = tested on: HS729
Summary of the method: as §1

KHOS-240S = tested on: KHOS-240S
Summary of the method: as §1

MES-SA = tested on: MES-SA
Summary of the method: as §1

RD = tested on: RD
Summary of the method: as §1

SK-ES-1 = tested on: SK-ES-1
Summary of the method: as §1

SK-LMS-1 = tested on: SK-LMS-1
Summary of the method: as §1

SW1353 = tested on: SW1353
Summary of the method: as §1

SW872 = tested on: SW872
Summary of the method: as §1

SW982 = tested on: SW982
Summary of the method: as §1

VA-ES-BJ = tested on: VA-ES-BJ
Summary of the method: as §1

C[C@H](Nc1ncnc2nc[nH]c12)c1cc2cccc(Cl)c2c(=O)n1-c1ccccc1 [Duvelisib]
Conditions | relative viability
A204, 0.00017 µM | 1.1
A204, 0.00051 µM | 1.09
A204, 0.00152 µM | 1.07
A204, 0.00457 µM | 1.096
A204, 0.01372 µM | 1.08
A204, 0.04115 µM | 1.06
A204, 0.1235 µM | 1.01
A204, 0.3704 µM | 0.908
A204, 1.111 µM | 0.761
A204, 3.333 µM | 0.555
A204, 10 µM | 0.445
G401, 0.00017 µM | 1.07
G401, 0.00051 µM | 1.03
G401, 0.00152 µM | 1.05
G401, 0.00457 µM | 1.017
G401, 0.01372 µM | 0.987
G401, 0.04115 µM | 0.983
G401, 0.1235 µM | 0.966
G401, 0.3704 µM | 0.9339
G401, 1.111 µM | 0.862
G401, 3.333 µM | 0.763
G401, 10 µM | 0.593
HS729, 0.00017 µM | 1.06
HS729, 0.00051 µM | 1.09
HS729, 0.00152 µM | 1.03
HS729, 0.00457 µM | 1.03
HS729, 0.01372 µM | 1
HS729, 0.04115 µM | 0.987
HS729, 0.1235 µM | 1.02
HS729, 0.3704 µM | 0.891
HS729, 1.111 µM | 0.863
HS729, 3.333 µM | 0.726
HS729, 10 µM | 0.606
KHOS-240S, 0.00017 µM | 1.05
KHOS-240S, 0.00051 µM | 1.11
KHOS-240S, 0.00152 µM | 1.08
KHOS-240S, 0.00457 µM | 1.09
KHOS-240S, 0.01372 µM | 1.06
KHOS-240S, 0.04115 µM | 1.04
KHOS-240S, 0.1235 µM | 1.05
KHOS-240S, 0.3704 µM | 1.02
KHOS-240S, 1.111 µM | 0.952
KHOS-240S, 3.333 µM | 0.9
KHOS-240S, 10 µM | 0.777
MES-SA, 0.00017 µM | 0.98
MES-SA, 0.00051 µM | 0.961
MES-SA, 0.00152 µM | 0.964
MES-SA, 0.00457 µM | 0.944
MES-SA, 0.01372 µM | 0.906
MES-SA, 0.04115 µM | 0.9422
MES-SA, 0.1235 µM | 0.923
MES-SA, 0.3704 µM | 0.849
MES-SA, 1.111 µM | 0.77
MES-SA, 3.333 µM | 0.631
MES-SA, 10 µM | 0.453
RD, 0.00017 µM | 1.08
RD, 0.00051 µM | 1.1
RD, 0.00152 µM | 1.13
RD, 0.00457 µM | 1.11
RD, 0.01372 µM | 1.12
RD, 0.04115 µM | 1.11
RD, 0.1235 µM | 1.08
RD, 0.3704 µM | 1.07
RD, 1.111 µM | 0.994
RD, 3.333 µM | 0.84
RD, 10 µM | 0.619
SK-ES-1, 0.00017 µM | 1.09
SK-ES-1, 0.00051 µM | 1.07
SK-ES-1, 0.00152 µM | 1.06
SK-ES-1, 0.00457 µM | 1.05
SK-ES-1, 0.01372 µM | 1.02
SK-ES-1, 0.04115 µM | 0.968
SK-ES-1, 0.1235 µM | 0.99
SK-ES-1, 0.3704 µM | 0.96
SK-ES-1, 1.111 µM | 0.8914
SK-ES-1, 3.333 µM | 0.768
SK-ES-1, 10 µM | 0.564
SK-LMS-1, 0.00017 µM | 1.05
SK-LMS-1, 0.00051 µM | 1.04
SK-LMS-1, 0.00152 µM | 1.08
SK-LMS-1, 0.00457 µM | 1.05
SK-LMS-1, 0.01372 µM | 1.03
SK-LMS-1, 0.04115 µM | 0.9363
SK-LMS-1, 0.1235 µM | 0.91
SK-LMS-1, 0.3704 µM | 0.811
SK-LMS-1, 1.111 µM | 0.688
SK-LMS-1, 3.333 µM | 0.572
SK-LMS-1, 10 µM | 0.438
SW872, 0.00017 µM | 1.11
SW872, 0.00051 µM | 1.1
SW872, 0.00152 µM | 1.08
SW872, 0.00457 µM | 1.11
SW872, 0.01372 µM | 1.08
SW872, 0.04115 µM | 1.03
SW872, 0.1235 µM | 1.02
SW872, 0.3704 µM | 0.897
SW872, 1.111 µM | 0.813
SW872, 3.333 µM | 0.666
SW872, 10 µM | 0.519
SW982, 0.00017 µM | 1.04
SW982, 0.00051 µM | 1.08
SW982, 0.00152 µM | 1.09
SW982, 0.00457 µM | 1.06
SW982, 0.01372 µM | 1.08
SW982, 0.04115 µM | 1.04
SW982, 0.1235 µM | 1
SW982, 0.3704 µM | 0.952
SW982, 1.111 µM | 0.891
SW982, 3.333 µM | 0.771
SW982, 10 µM | 0.623
SW1353, 0.00017 µM | 1.074
SW1353, 0.00051 µM | 1.06
SW1353, 0.00152 µM | 1.03
SW1353, 0.00457 µM | 1.02
SW1353, 0.01372 µM | 1.02
SW1353, 0.04115 µM | 0.996
SW1353, 0.1235 µM | 0.915
SW1353, 0.3704 µM | 0.885
SW1353, 1.111 µM | 0.786
SW1353, 3.333 µM | 0.761
SW1353, 10 µM | 0.614
VA-ES-BJ, 0.00017 µM | 1.09
VA-ES-BJ, 0.00051 µM | 1.1
VA-ES-BJ, 0.00152 µM | 1.09
VA-ES-BJ, 0.00457 µM | 1.1
VA-ES-BJ, 0.01372 µM | 1.08
VA-ES-BJ, 0.04115 µM | 1.06
VA-ES-BJ, 0.1235 µM | 1.01
VA-ES-BJ, 0.3704 µM | 0.941
VA-ES-BJ, 1.111 µM | 0.834
VA-ES-BJ, 3.333 µM | 0.688
VA-ES-BJ, 10 µM | 0.48

From the supplement of paper PMC10883282
